From patent publication US8617546B2, “Anticancer agent comprising anti-PD-1 antibody or anti-PD-L1 antibody” (Seoul National University Industry Foundation, priority 2008, dated 2013)

Assays:
[1] = test system: B16F10 melanoma metastasis; experiment: B16F10 melanoma metastasis model with anergy-induced iNKT cells: number of pulmonary nodules; assay type: in vivo, C57BL/6 mice; details: anergy induced with control IgG and α-GC; α-GC treatment during tumor inoculation; FIG. 10
Experimental: Anergy-induced iNKT cells were assayed for the recovery of anti-tumor activity by the antibodies of the present invention. In this regard, naive C57BL/6 mice were intraperitoneally injected with 200 μg of the control rat IgG, the anti-PD-1 antibody or the anti-PD-L1 antibody 24 hrs after which injection with 2 μg of α-GC induced iNKT cell anergy. 7 days later, 5×10^5 B16F10 tumor cells were i.v. injected. On Day 0, 4 and 8, the mice were treated with 500 ng of α-GC to induce anti-tumor activity of iNKT cells. 14 days later, the lungs were excised and the nodules formed by cancer metastasis were counted (A). The isolated lungs were observed under an optical microscope (B).

iNKT cells [2] = experiment: iNKT cell activation in vivo: serum IFN-γ and IL-4 by ELISA after α-GC treatment; set-up: species or system C57BL/6 mice; details: 2 μg α-GC; FIG. 3
Experimental: C57BL/6 mice was injected with 200 μg of the control rat IgG, the anti-PD-1 mAb, the anti-PD-L1 mAb or the anti-PD-L2 mAb 24 hrs before treatment with 2 μg of α-GC. Sera were obtained at 0, 2, 6, 12, 24, 48 and 72 hrs after the treatment, followed by ELISA analysis for IFN-γ and IL-4 levels.

anergic iNKT cells [3] = experiment: Recovery of responsiveness of anergic iNKT cells in vivo: serum cytokines after secondary α-GC injection; set-up: species or system C57BL/6 mice; details: 2 μg α-GC, re-injection 14 days later; FIG. 6
Experimental: 200 μg of the control rat IgG, the anti-PD-1 antibody or the anti-PD-L1 antibody was intraperitoneally injected into C57BL/6 mice 24 hrs before treatment with 2 μg of α-GC. 14 days later, 2 μg of α-GC was injected again, followed by the preparation of sera 2 and 12 hrs after the re-injection for ELISA assay of IL-4 and IFN-γ levels, respectively.

anergic iNKT cells [4] = experiment: Recovery of responsiveness of anergic iNKT cells in vitro (cytokine ELISA of supernatants); assay type: cell-based, C57BL/6 mice; details: pre-treatment with 2 μg α-GC 7 days before restimulation, in presence of control IgG; FIG. 5
Experimental: The α-GC-induced unresponsiveness of iNKT cells was detected as early as 3 days after primary stimulation and observed to persist until 7~30 days after α-GC stimulation. Thus, C57BL/6 mice were injected with 2 μg of α-GC to induce iNKT cell anergy. One week and one month later, splenocytes were isolated from the mice and 5×10^5 cells were incubated for 3 days with 100 ng/ml of α-GC in the presence of 50 μg/ml of the control rat IgG, the anti-PD-1 mAb, the anti-PD-L1 mAb, or the anti-PD-L2 mAb. Also, splenocytes isolated from the mice were incubated for 3 days with 10 ng/ml of α-GC without mAb, and these were represented by ‘activation’. The supernatants were then assayed for IFN-γ and IL-4 levels by ELISA [*:p<0.05 and **:p<0.01 (vs. control rat IgG)].

iNKT cells [5] = experiment: Expression of PD-1 and PD ligands on iNKT cells after α-GC administration (FACS); assay type: in vivo, C57BL/6 mice; details: FIG. 1
Experimental: Splenocytes were isolated from C57BL/6 mice administered with 2 μg of α-GC at different time points (0 hr, 6 hrs, 72 hrs, 7 days, one month and two months) after the administration. The cells were stained with a PE-conjugated anti-PD-1 monoclonal antibody, a PE-conjugated anti-PD-L1 monoclonal antibody, a PE-conjugated anti-PD-L2 monoclonal antibody and a PE-conjugated isotype control monoclonal antibody, respectively. iNKT cells were gated on B220^− TCR-β^intα-GC/CD1d:Ig^+ population. PD-1, PD-L1 and PD-L2 expression (open histograms) was analyzed by FACS. Shaded histograms indicate staining with isotype control niAbs.

Compound: CCCCCCCCCCCCCCCCCCCCCCCCCC(=O)N[C@@H](CO[C@H]1O[C@H](CO)[C@H](O)[C@H](O)[C@H]1O)[C@H](O)[C@H](O)CCCCCCCCCCCCCC [α-GC, α-galactosylceramide]
- tumor growth / metastasis with anergic iNKT cells [1]: did not suppress tumor growth
- time of peak blood IFN-γ level after α-GC treatment (iNKT cells [2]): ≤ 12 h
- time of peak blood IL-4 level after α-GC treatment (iNKT cells [2]): ≤ 2 h
- serum IFN-γ upon secondary α-GC injection in mice pretreated with α-GC (anergic iNKT cells [3]): significantly low
- serum IL-4 upon secondary α-GC injection in mice pretreated with α-GC (anergic iNKT cells [3]): significantly low
- production of IFN-γ on restimulation after α-GC pre-treatment (anergic iNKT cells [4]): greatly decrease
- production of IL-4 on restimulation after α-GC pre-treatment (anergic iNKT cells [4]): greatly decrease
- PD-L1 expression on iNKT cells (iNKT cells [5]; after 2 μg α-GC): temporarily increased
- persistence of the upregulated PD-1 level on iNKT cells (iNKT cells [5]; after 2 μg α-GC): for two months
- time for PD-L1 expression to decline toward naive state levels (iNKT cells [5]; after 2 μg α-GC): ≤ 72 h
- PD-L2 expression on iNKT cells (iNKT cells [5]; regardless of activation status): not found
- PD-1 expression on iNKT cells (iNKT cells [5]; splenocytes after 2 μg α-GC, 0 hr to two months): upregulated
